From ChEMBL document CHEMBL1136397, “5-Aryl thiazolidine-2,4-diones as selective PPARgamma agonists” (Bioorg Med Chem Lett, 2003) come the findings set out here.

Data set [1] is described as follows: In vivo triglyceride correction was determined in male db/db mice after administration at 10 mg/kg. In kind it is functional, Mus musculus.
Data set [2] relates to Rattus norvegicus. Description: Plasma clearance was determined in rat after intravenous administration (0.5 mg/kg). It counts as functional, organism-based.
Data set [3] concerns the target T1, Peroxisome proliferator-activated receptor alpha (Homo sapiens, UniProt Q07869).
T1 sequence (Q07869 whole entry): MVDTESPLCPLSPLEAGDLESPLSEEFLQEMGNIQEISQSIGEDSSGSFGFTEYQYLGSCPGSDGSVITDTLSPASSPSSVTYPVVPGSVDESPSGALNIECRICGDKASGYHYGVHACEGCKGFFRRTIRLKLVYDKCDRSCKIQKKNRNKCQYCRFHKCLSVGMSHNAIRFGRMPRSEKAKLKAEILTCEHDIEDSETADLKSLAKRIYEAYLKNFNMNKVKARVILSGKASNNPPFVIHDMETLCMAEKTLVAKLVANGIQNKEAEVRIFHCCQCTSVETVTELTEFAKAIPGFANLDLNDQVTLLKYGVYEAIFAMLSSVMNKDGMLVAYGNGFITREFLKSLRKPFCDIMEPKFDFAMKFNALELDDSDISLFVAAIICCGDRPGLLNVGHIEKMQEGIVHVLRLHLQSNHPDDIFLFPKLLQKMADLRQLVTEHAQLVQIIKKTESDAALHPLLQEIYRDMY
As to the kind of experiment: In vitro binding affinity against human PPAR alpha (peroxisome proliferator-activated alpha receptor).

Data set [4] addresses T2, Peroxisome proliferator-activated receptor gamma (Homo sapiens, UniProt P37231).
T2 sequence (P37231 whole entry): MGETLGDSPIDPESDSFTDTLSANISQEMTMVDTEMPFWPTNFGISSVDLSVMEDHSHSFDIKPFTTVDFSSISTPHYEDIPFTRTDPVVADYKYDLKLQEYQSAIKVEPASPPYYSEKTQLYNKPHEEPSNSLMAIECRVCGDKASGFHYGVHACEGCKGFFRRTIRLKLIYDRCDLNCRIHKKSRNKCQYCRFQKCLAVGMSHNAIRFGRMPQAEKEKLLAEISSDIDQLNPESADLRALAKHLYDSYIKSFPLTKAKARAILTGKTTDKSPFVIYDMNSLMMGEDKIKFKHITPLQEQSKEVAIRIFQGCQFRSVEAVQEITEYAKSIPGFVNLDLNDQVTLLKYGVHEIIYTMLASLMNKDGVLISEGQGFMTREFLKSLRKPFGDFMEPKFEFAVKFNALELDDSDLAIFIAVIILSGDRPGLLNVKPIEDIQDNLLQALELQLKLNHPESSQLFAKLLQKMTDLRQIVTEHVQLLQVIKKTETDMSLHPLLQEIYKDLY
Description: In vitro binding affinity against human PPAR gamma (peroxisome proliferator-activated gamma receptor)

Data set [5] addresses T1, Peroxisome proliferator-activated receptor alpha. As to the kind of experiment: In vitro agonist activity tested for transactivation in human PPAR alpha-Gal4 chimeric COS-1 cells. In kind it is functional, cell-based.
Data set [6] has as its target T2, Peroxisome proliferator-activated receptor gamma. This is another data set of the same source.
Description: In vitro agonist activity tested for transactivation in human PPAR gamma-Gal4 chimeric COS-1 cells
In data set [7] the test system is Mus musculus. Description: In vivo triglyceride correction was determined in male db/db mice after administration at 5 mg/kg. In kind it is functional.
Data set [8] in a line: Half-life was determined in rat after intravenous administration (0.5 mg/kg). In kind it is ADME, organism-based. Conditions: in vivo.
The test system of data set [9] is Rattus norvegicus. Description: Dose-normalized AUC was determined in rat after peroral administration (2 mg/kg). It counts as ADME, organism-based. Conditions: in vivo, po.
Data set [10] concerns the target T3, Peroxisome proliferator-activated receptor delta (Homo sapiens, UniProt Q03181).
T3 sequence (Q03181 whole entry): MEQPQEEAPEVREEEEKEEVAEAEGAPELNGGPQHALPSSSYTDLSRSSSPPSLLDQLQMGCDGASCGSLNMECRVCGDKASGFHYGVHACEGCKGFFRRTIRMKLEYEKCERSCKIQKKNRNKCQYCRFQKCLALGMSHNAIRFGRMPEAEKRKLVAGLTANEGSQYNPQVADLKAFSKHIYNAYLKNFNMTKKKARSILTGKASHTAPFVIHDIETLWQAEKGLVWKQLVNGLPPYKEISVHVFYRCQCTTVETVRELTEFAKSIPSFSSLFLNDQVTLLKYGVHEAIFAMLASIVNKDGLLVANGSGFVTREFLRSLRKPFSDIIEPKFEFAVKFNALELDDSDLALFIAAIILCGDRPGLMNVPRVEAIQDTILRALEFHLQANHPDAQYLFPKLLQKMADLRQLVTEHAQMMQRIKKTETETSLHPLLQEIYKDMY
Description: In vitro binding affinity against human PPAR delta (peroxisome proliferator-activated delta receptor)

The target of data set [11] is T3, Peroxisome proliferator-activated receptor delta. This is another data set of the same source.
Description: In vitro agonist activity tested for transactivation in human PPAR delta-GAL4 chimeric COS-1 cells
Data set [12] can be described thus: Oral bioavailability in rat (dose 2 mg/kg). In kind it is ADME, organism-based. Conditions: in vivo.
The subject of data set [13] is Mus musculus. As to the kind of experiment: In vivo glucose correction was determined in male db/db mice after administration at 5 mg/kg. In kind it is functional.
Data set [14] is described as follows: In vivo glucose correction was determined in male db/db mice after administration at 10 mg/kg. It counts as functional, Mus musculus.

Take `CCCc1cc(Oc2ccc(S(C)(=O)=O)cc2)ccc1OCCCOc1ccc(C2SC(=O)NC2=O)cc1` (centres undefined): the Triglyceride correction in [1] worked out at 78%; in the data set with Mus musculus [7] it was 55%. This compound also returned a CL (mL.min-1.kg-1) with Rattus norvegicus [2] of 2.1. For the same compound, the results for the 50% inhibitory concentration (IC50) in [3], in data set [4] and in data set [10] were more than 50000 nM, 250 nM and more than 50000 nM, respectively. Further, the EC50 was more than 3000 nM in [5], 120 nM in data set [6] and more than 3000 nM in data set [11]. The half-life in [8] was 2.8 h. The compound further had an AUC with Rattus norvegicus [9] of 11.8 µM·h. In data set [12], this compound returned a bioavailability of 84%. For the same compound, the figures for the Glucose correction (with Mus musculus [13]; in data set [14]) were 62% and 86%, respectively.
